From PMC4461796, “Synthesis, anticholinesterase and antioxidant potentials of ketoesters derivatives of succinimides: a possible role in the management of Alzheimer’s” (Chemistry Central Journal, 2015)
Converted amounts (≈) assume the structure as drawn. “And” between values parts separate entries of the source, which are not always exact repeats. Identical values can stand only once. Like-named read-outs stand apart in the source and are kept apart here.

Columns and labels:
[1] = DPPH free radicals scavenging assay; settings: for Percent inhibition (mean ± SEM), DPPH free radicals scavenging: n = 3; for IC50 (DPPH free radicals scavenging): from 250-1000 μg/mL tested concentrations
Method: The compounds’ free radical scavenging ability was evaluated using 1,1-diphenyl, 2-picrylhydrazyl (DPPH) free radicals. Different dilutions (250, 500 and 1000 μg/mL) of compounds (0.1 mL) were added to 0.004 % methanolic solution of DPPH. After 30 min the absorbance was measured at 517 nm using UV spectrophotometer. Ascorbic acid was used as positive control.
Percent scavenging activity was calculated as; A0−A1/A0×100
Where A0 is absorbance of control and A1 is the absorbance of the compound sample. Each experiment was performed in triplicate and inhibition curves were constructed using the GraphPad prism program (GraphPAD, San Diego, California, USA) and median inhibitory concentrations (IC50) values were determined.
(§1) Radical scavenging ability was calculated by a linear regression analysis among the inhibition percentages against the compounds concentrations via the Excel program.

[2] = ABTS free radicals scavenging assay; settings: for Percent inhibition (mean ± SEM), ABTS free radicals scavenging: n = 3; for IC50 (ABTS free radicals scavenging): from 250-1000 μg/mL tested concentrations
Method: ABTS (2, 2-azinobis [3-ethylbenzthiazoline]-6-sulfonic acid) free radicals were also used to confirm the antioxidant activity of the synthesized compounds. The activity is based on the capacity of antioxidants to scavenge ABTS^+ radical cation causing a reduction in absorbance at 734 nm. ABTS (7 mM) and […] (2.45 mM) solutions were prepared and mixed. The resultant mixture was maintained at room temperature in dark for 12–16 h to get dark color solution containing ABTS^+ radical cations. At the time of activity, ABTS^+ radical cation solution was diluted with Phosphate buffer (0.01 M) pH 7.4 to adjust an absorbance value of 0.70 at 734 nm. Radical scavenging capability of the compounds was analyzed by mixing 300 μl of compound with 3.0 mL of ABTS solution in cuvette. The reduction in absorbance was measured spectrophotometrically after one minute of mixing the solutions and continued for six min. Ascorbic acid was used as a positive control. The assay was repeated three times and percent inhibition was calculated with formula; %scavengingeffect=Controlabsorbance‐Sampleabsorbance/Controlabsorbance×100
as §1

[3] = target: T1, butyrylcholinesterase (BChE) from equine serum (Equus caballus, UniProt P81908); test: Butyrylcholinesterase inhibition assay (Ellman's spectrophotometric assay); type: biochemical; settings: for IC50: from 250-1000 μg/mL tested concentrations; for inhibition at 250 µg/mL / inhibition at 500 µg/mL / inhibition at 1000 µg/mL: read-out: Percent AChEI (mean ± SEM) (Table 3, butyrylcholinesterase inhibition)
T1 construct: BChE equine serum Lyophilized (CAS 9001-08-5 Sigma-Aldrich GmbH USA); purchased Sigma-Aldrich CAS 9001-08-5 (catalogue number not given); host or cells: equine serum
Method: (§2) The assay is based on the acetylcholinesterase promoted hydrolysis of acetylthiocholine iodide and butyrylthiocholine iodide by butyrylcholinesterase. The hydrolysis processes give 5-thio-2-nitrobenzoate anion followed by complexation with DTNB (which give yellow color) and is detected by the spectrophotometer.
(§3) Compounds (each separately) were dissolved in phosphate buffer (0.1 M) in concentrations ranging from 250–1000 μg/mL. […] Finally, potassium hydroxide was used to adjust pH. AChE (518 U/mg solid) and BChE (7–16 U/mg) were diluted in freshly prepared buffer pH 8.0 until final concentrations of 0.03 U/mL and 0.01 U/mL were obtained. Solutions of DTNB (0.0002273 M), ATchI and BTchI (0.0005 M) were prepared in distilled water and were kept in Eppendorf caps in the refrigerator.
(§4) For each assay, an enzyme solution of 5 μl was added to the cuvette followed by addition of compound (205 μl), and finally DTNB reagent (5 μl). The solution mixture was maintained at 30 °C for 15 min using water bath with subsequent addition of substrate solution (5 μl). A double beam spectrophotometer was used to measure the absorbance at 412 nm. […] The absorbances along with the reaction time were taken for four minutes at 30 °C and were repeated in triplicate. Finally, the enzyme activity and enzyme inhibition by control and tested samples were calculated from the rate of absorption with change in time (V = ΔAbs /Δt) as follow;
Where Vmax is enzyme activity in the absence of inhibitor drug.
as §1

[4] = target: T2, acetylcholinesterase (AChE) from Electric eel (Electrophorus electricus, UniProt O42275); type: biochemical; settings: n = 3
T2 construct: AChE Electric eel (type-VI-S, CAS 9000-81-1 Sigma-Aldrich GmbH USA); purchased Sigma-Aldrich type-VI-S (CAS 9000-81-1; catalogue number not given)
Method: as §2, §3, §4
Where Vmax is enzyme activity in the absence of inhibitor drug. […]

T2 sequence (O42275 24-633): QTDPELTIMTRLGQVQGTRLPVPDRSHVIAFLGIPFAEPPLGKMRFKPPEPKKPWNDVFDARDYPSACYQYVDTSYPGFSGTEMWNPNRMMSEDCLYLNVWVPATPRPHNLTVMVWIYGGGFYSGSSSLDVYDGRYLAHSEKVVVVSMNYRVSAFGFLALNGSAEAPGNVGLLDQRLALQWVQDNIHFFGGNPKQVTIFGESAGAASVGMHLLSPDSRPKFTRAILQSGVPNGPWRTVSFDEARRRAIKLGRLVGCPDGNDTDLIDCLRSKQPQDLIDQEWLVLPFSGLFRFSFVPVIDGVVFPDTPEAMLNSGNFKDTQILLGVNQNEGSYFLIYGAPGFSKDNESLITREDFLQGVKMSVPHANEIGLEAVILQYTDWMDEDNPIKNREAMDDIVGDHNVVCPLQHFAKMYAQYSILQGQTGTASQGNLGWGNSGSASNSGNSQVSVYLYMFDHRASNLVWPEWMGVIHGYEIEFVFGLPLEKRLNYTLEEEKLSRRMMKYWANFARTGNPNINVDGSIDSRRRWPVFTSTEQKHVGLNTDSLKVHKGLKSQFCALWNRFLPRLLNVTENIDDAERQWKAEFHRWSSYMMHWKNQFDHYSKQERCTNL
T1 sequence (P81908 whole entry): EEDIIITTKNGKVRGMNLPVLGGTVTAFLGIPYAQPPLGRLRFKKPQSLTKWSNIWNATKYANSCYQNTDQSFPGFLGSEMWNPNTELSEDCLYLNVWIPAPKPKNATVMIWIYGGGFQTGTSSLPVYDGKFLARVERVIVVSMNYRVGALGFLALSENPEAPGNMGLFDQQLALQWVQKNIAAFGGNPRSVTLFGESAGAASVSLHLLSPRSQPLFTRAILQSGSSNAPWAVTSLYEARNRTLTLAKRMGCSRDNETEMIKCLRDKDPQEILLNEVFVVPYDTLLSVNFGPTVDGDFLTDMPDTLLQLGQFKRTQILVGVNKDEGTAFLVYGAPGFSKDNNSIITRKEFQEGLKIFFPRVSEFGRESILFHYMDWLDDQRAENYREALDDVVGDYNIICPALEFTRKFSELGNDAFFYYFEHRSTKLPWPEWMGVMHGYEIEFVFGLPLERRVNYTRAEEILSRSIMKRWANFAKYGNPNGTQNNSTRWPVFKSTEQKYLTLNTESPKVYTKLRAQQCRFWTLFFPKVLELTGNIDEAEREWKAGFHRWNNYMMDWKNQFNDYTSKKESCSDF

Structure (SMILES)	Percent inhibition (mean ± SEM), DPPH free radicals scavenging ([1]; conc. 250 μg/mL)	Percent inhibition (mean ± SEM), DPPH free radicals scavenging ([1]; conc. 500 μg/mL)	Percent inhibition (mean ± SEM), DPPH free radicals scavenging ([1]; conc. 1000 μg/mL)	IC50 (DPPH free radicals scavenging) [1]	Percent inhibition (mean ± SEM), ABTS free radicals scavenging ([2]; conc. 250 μg/mL)	Percent inhibition (mean ± SEM), ABTS free radicals scavenging ([2]; conc. 500 μg/mL)	Percent inhibition (mean ± SEM), ABTS free radicals scavenging ([2]; conc. 1000 μg/mL)	IC50 (ABTS free radicals scavenging) [2]	IC50 [3]	inhibition at 250 µg/mL [3]	inhibition at 500 µg/mL [3]	inhibition at 1000 µg/mL [3]	Percent AChEI (mean ± SEM) ([4]; concentration 250 μg/mL)	Percent AChEI (mean ± SEM) ([4]; concentration 500 μg/mL)	Percent AChEI (mean ± SEM) ([4]; concentration 1000 μg/mL)
O=C1O[C@H]([C@@H](O)CO)C(O)=C1O [Ascorbic acid, reference compound]	78.61 ± 0.23%	81.71 ± 0.54%	93.56 ± 0.37%	20 µg/mL (≈ 114 µM)	84.66 ± 0.88%	87.23 ± 0.47%	91.62 ± 0.62%	<0.1 µg/mL	–	–	–	–	–	–	–
CCOC(=O)C1(C2CC(=O)N(c3ccccc3)C2=O)CCCC1=O (centres unmarked) [Compound 1, Ethyl 2-oxo-1-(2,5-dioxo-1-phenylpyrrolidin-3-yl)cyclopentanecarboxylate]	35.60 ± 0.75 %	52.49 ± 0.78 %	72.41 ± 0.45 %	440 µg/mL (≈ 1340 µM)	65.00 ± 0.57 %	77.45 ± 0.54 %	88.51 ± 0.62 %	90 µg/mL (≈ 273 µM)	128 µM	72.5 ± 0.02%	82.5 ± 0.18%	90.25 ± 0.02%	93.25 ± 0.25 ^ns %	94.25 ± 0.05 ^ns %	98.00 ± 0.70% and 98.00 ± 0.70^ns %
CCOC(=O)C1(C2CC(=O)N(Cc3ccccc3)C2=O)CCCC1=O (centres unmarked) [Compound 2, Ethyl 1-(1-benzyl-2,5-dioxopyrrolidin-3-yl)-2-oxocyclopentanecarboxylate]	33.61 ± 0.66 %	52.48 ± 0.56 %	70.32 ± 0.61 %	460 µg/mL (≈ 1340 µM)	59.66 ± 0.66 %	72.45 ± 0.65 %	86.49 ± 0.49 %	141 µg/mL (≈ 411 µM)	< 0.291 µM	84.25 ± 0.12%	86.75 ± 0.22%	90 ± 0.1%	91.00 ± 0.52% and 91.00 ± 0.52 ^ns %	91.75 ± 0.04% and 91.75 ± 0.04 ^ns %	98.75 ± 0.25% and 98.75% and 98.75 ± 0.25 ^ns %
CCOC(=O)C1(C2CC(=O)N(c3ccccc3)C2=O)CCCCC1=O (centres unmarked) [Compound 3, Ethyl 2-oxo-1-(2,5-dioxo-1-phenylpyrrolidin-3-yl)cyclohexanecarboxylate]	30.59 ± 0.67 %	54.64 ± 0.70 %	60.40 ± 0.49 %	535 µg/mL (≈ 1560 µM)	64.67 ± 0.89 %	71.25 ± 0.48 %	80.41 ± 0.73 %	73 µg/mL (≈ 213 µM)	20.4 µM	78.25 ± 0.04%	89 ± 0.3%	89.25 ± 0.5%	95.25 ± 0.20 ^ns %	96.00 ± 0.80 ^ns %	98.50 ± 0.09% and 98.50 ± 0.09 ^ns %
CCOC(=O)C1(C2CC(=O)N(Cc3ccccc3)C2=O)CCCCC1=O (centres unmarked) [Compound 4, 1Ethyl 1-(1-benzyl-2,5-dioxopyrrolidin-3-yl)-2-oxocyclohexanecarboxylate]	20.34 ± 0.58 %	24.75 ± 0.64 %	45.80 ± 0.61 %	>1000 µg/mL	54.00 ± 1.15 %	67.33 ± 0.77 %	73.59 ± 0.43 %	173 µg/mL (≈ 484 µM)	5.6 µM	87.5 ± 0.04%	88.5 ± 0.5%	98.5 ± 0.18%	93.25 ± 0.15 ^ns %	96.00 ± 0.55 ^ns %	97.25 ± 0.07% and 97.25 ± 0.07 ^ns %
COc1ccc2c3c1O[C@H]1C[C@@H](O)C=C[C@@]31CCN(C)C2 [Galanthamine, reference compound]	–	–	–	–	–	–	–	–	–	71.72 ± 0.51%	85.47 ± 0.59%	94.5 ± 0.71%	–	–	–
